Data taken from patent US20260285834A1, “SUBSTITUTED PYRIDINE DERIVATIVES AS SARM1 INHIBITORS” (Nura Bio, Inc., priority 2022, published 2026).
pIC50: −log10 of the molar value. Where two headings read alike, the source gives them in different places.

Target: T1, human SARM1(50-724) (Homo sapiens, UniProt Q6SZW1)
T1 construct: 40 nM human SARM1(50-724)
T1 sequence (Q6SZW1 50-724): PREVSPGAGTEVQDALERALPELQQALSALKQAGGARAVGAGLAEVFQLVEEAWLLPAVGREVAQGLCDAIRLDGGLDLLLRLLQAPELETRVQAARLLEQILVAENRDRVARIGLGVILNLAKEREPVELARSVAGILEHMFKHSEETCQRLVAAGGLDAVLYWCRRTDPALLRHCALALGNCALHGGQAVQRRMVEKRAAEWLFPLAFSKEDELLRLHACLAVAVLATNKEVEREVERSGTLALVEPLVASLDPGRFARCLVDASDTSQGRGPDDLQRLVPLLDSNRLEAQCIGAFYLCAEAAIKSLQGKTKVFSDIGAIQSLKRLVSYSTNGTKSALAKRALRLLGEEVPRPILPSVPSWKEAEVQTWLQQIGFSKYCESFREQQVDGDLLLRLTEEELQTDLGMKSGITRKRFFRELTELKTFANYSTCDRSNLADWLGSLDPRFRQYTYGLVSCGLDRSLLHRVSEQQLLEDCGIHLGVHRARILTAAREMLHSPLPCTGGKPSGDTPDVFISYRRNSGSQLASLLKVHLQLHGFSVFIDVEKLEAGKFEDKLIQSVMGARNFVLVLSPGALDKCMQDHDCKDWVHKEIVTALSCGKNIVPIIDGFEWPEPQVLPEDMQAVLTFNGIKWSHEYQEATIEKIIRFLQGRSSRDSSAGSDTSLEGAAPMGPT
Assay: SARM1 biological assay: HPLC measurement of NAD and NAM peak areas
Type: biochemical
Procedure: Each reaction was run at a volume of 20 μL containing 50 μM compound (dissolved in DMSO; final concentration of DMSO is 1% v/v), 40 nM human SARM1(50-724), 0.3 mM NMN, 20 μM NAD, 1 mM TCEP, 25 mM HEPES pH 7.4, 10 mM KCl and 10 mM MgCl2. The reaction was incubated at room temperature for 60 minutes and quenched with 20 μL of 0.4% formic acid. The samples were run on Agilent HPLC 1260 Infinity II with Synergi 2.5 μM Fusion-RP 100 Å (100×3.0 mm) LC column from Phenomenex. Total run time for each sample was 4 minutes. The run was isocratic with 1.5% methanol in 40 mM ammonium acetate pH 6.0. Samples were run at a flow rate of 0.8 mL/min at 55° C. Peak areas of NAD and NAM were determined using OpenLAB CDS (Chem Station edition) software. For dose-response, the compound was diluted serially 1:3 in DMSO and added to the reaction starting at a final compound concentration of 100 μM in 1% DMSO.

[1] = 40 nM human SARM1(50-724), 0.3 mM NMN, 20 μM NAD, 60 min at room temperature, dose-response 1:3 serial dilution from 100 μM, read-out: Average IC50

pIC50 [1]	Structure (SMILES)	pIC50
–	FC1(F)CNC(c2nc(Cc3ccncc3)c[nH]2)C1 (stereo not drawn) [Example 32, 4-((2-(4,4-Difluoropyrrolidin-2-yl)-1H-imidazol-4-yl)methyl)pyridine]	5.00 to 6.00
–	ClC1CC(c2nc(Cc3ccncc3)c[nH]2)C1 (stereo not drawn) [Example 34, 4-((2-(3-Chlorocyclobutyl)-1H-imidazol-4-yl)methyl)pyridine]	> 6.00
5.00 to 6.00	N#C[C@H]1C[C@@H](c2nc(Cc3ccncc3)c[nH]2)C1 [Example 35A]	–
–	N#CC1CC(c2nc(Cc3ccncc3)c[nH]2)C1 [Example 35B, (trans)-(1S, 3S)-3-(4-Pyridin-4ylmethyl)-1H-imidazol-2-yl)cyclobutane-1-carbonitrile]	> 6.00
–	FC(F)(F)O[C@H]1C[C@@H](c2nc(Cc3ccncc3)c[nH]2)C1 [Example 37A, (cis)-4-((2-(3-(Trifluoromethoxy)cyclobutyl)-1H-imidazole-4-yl)methyl)pyridine]	> 6.00
–	FC(F)(F)O[C@H]1C[C@H](c2nc(Cc3ccncc3)c[nH]2)C1 [Example 37B, (trans)-4-((2-(3-(Trifluoromethoxy)cyclobutyl)-1H-imidazole-4-yl)methyl)pyridine]	5.00 to 6.00
5.00 to 6.00	N#CC1(F)CC(c2nc(Cc3ccncc3)c[nH]2)C1 (stereo not drawn) [Example 38A]	–
–	FC1(Cl)CC1c1nc(Cc2ccncc2)c[nH]1 (stereo not drawn) [Example 39, 4-((2-(2-Chloro-2-fluorocyclopropyl)-1H-imidazol-4-yl)methyl)pyridine]	> 6.00
–	FC1(F)CC1(F)c1nc(Cc2ccncc2)c[nH]1 (stereo not drawn) [Example 40, 4-((2-(1,2,2-Trifluorocyclopropyl)-1H-imidazol-4-yl)methyl)pyridine]	> 6.00
